In patent publication US9839642B2, “Beta-tetrazolyl-propionic acids as metallo-beta-lactamase inhibitors” (priority 2014, dated 2017):
Where two headings read alike, the source gives them in different places.

Legend:
[1] = target: VIM-1 (Pseudomonas aeruginosa, UniProt A0A0F7KYQ8); assay: Enzyme activity: determination of IC50, fluorescence assay with CCF2-FA substrate; format: biochemical; conditions: CCF2-FA 1.25 μM, 2 hours at 25° C., read-out: VIM1 IC50
Method in brief: (§1)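 In pH 7 phosphate buffer (100 mM) with 10 μM ZnSO4 and 0.005% Tween-20, CCF2-FA substrate (1.25 μM final) was hydrolysed for 2 h at 25 °C by NDM-1, IMP-1 or VIM-1 at 1, 2 or 30 pM in the presence of inhibitor at 20–0.00063 μM. Emission 460 nm/excitation 405 nm; 4-parameter curve fit gave IC50.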

[2] = target: IMP-1 (Serratia marcescens, UniProt P52699); assay: as above; format: biochemical; conditions: CCF2-FA 1.25 μM, 2 hours at 25° C., read-out: IMP1 IC50
Sequence of IMP-1 (P52699 19-246, looked up, species assumed): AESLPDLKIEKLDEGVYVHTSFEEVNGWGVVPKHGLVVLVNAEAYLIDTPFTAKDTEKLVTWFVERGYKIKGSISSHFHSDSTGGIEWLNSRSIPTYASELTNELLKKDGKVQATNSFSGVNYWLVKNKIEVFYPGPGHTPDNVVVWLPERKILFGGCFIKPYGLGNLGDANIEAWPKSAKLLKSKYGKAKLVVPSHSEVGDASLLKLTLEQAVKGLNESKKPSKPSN
Method in brief: as §1

[3] = target: NDM-1 (Klebsiella pneumoniae, UniProt C7C422); assay: as above; format: biochemical; conditions: CCF2-FA 1.25 μM, 2 hours at 25° C., read-out: NDM1 IC50
Sequence of NDM-1 (C7C422 29-270, looked up, species assumed): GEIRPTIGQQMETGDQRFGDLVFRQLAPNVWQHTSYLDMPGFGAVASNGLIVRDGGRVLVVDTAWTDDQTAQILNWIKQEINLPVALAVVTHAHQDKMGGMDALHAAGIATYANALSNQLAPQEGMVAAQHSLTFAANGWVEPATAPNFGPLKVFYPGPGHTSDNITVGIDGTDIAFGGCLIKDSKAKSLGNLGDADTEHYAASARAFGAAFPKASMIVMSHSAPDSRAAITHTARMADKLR
Method in brief: as §1

[4] = test system: Klebsiella pneumoniae expressing VIM-1 (IHMA599644); assay: Antibiotic potentiation activity: synergistic concentration (MITC95) with imipenem, growth by OD600; format: cell-based
Method in brief: (§2)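 MITC95 = lowest inhibitor concentration giving 95% growth inhibition, read by absorbance after 22–24 h at 35° C. Compound range 200 μM to 0.195 μM, imipenem fixed at 1 or 4 μg/ml, bacteria in 1.1×CAMHB from saline suspension diluted 1:100.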

[5] = test system: Serratia marcescens expressing IMP-1 (CL5741); assay: as above; format: cell-based
Method in brief: as §2

[6] = test system: Escherichia coli expressing NDM-1 (CLB30016); assay: as above; format: cell-based
Method in brief: as §2

[7] = K. pneumoniae IHMA599644 (VIM-1), 95% inhibition of growth
[8] = S. marcescens CL5741 (IMP-1), 95% inhibition of growth
[9] = E. coli CLB30016 (NDM-1), 95% inhibition of growth
[10] = 95% inhibition of bacterial growth, strain IHMA599644
[11] = 95% inhibition of bacterial growth, strain CL5741
[12] = 95% inhibition of bacterial growth, strain CLB30016

Compound	IC50 ([1]; VIM-1 enzyme 30 pM) [nM]	IC50 ([2]; IMP-1 enzyme 2 pM) [nM]	IC50 ([3]; NDM-1 enzyme 1 pM) [nM]	VIM1 KP599644 MITC95 [4, 7] [µM]	IMP1 SM5741 MITC95 [5, 8] [µM]	NDM1 EC30016 MITC95 [6, 9] [µM]	IC50 ([1]; enzyme 30 pM) [nM]	IC50 ([2]; enzyme 2 pM) [nM]	IC50 ([3]; enzyme 1 pM) [nM]	VIM1 KP599644 MITC95 [4, 10] [µM]	IMP1 SM5741 MITC95 [5, 11] [µM]	NDM1 EC30016 MITC95 [6, 12] [µM]
CCC[C@H](C(=O)O)[C@H](Cc1ccc(C2(O)CCNC2)cc1)c1nnn[nH]1.O=C(O)C(F)(F)F (stereo partly drawn) [Example 432, 3-(4-((2S,3S)-3-carboxy-2-(1H-tetrazol-5-yl)hexyl)phenyl)-3-hydroxypyrrolidin-1-ium 2,2,2-trifluoroacetate]	5.58	1010	141	12.5	12.5	9.375	–	–	–	–	–	–
CCC[C@H](C(=O)O)[C@H](Cc1ccc(N)nc1)c1nnn[nH]1 [Example 114, (S)-2-((S)-2-(6-aminopyridin-3-yl)-1-(1H-tetrazol-5-yl)ethyl)pentanoic acid]	–	–	–	–	–	–	6.2	3700	180	2.3	18.8	0.39
CC(C)C[C@H](C(=O)O)[C@H](Cc1ccc(N)nc1)c1nnn[nH]1 [Example 112, 2-amino-5-((2S,3S)-3-carboxy-5-methyl-2-(2H-tetrazol-5-yl)hexyl)pyridin-1-ium 2,2,2-trifluoroacetate]	–	–	–	–	–	–	4.9	570	110	5.5	11	0.54
CCC[C@H](C(=O)O)[C@H](Cc1cccc(C(N)=O)c1)c1nn[nH]n1 [Example 46, (2S)-2-[(1S)-2-(3-carbamoylphenyl)-1-(2H-tetrazol-5-yl)ethyl]pentanoic acid]	–	–	–	–	–	–	5.9	1600	70	12.5	37.5	9.4
CCC[C@H](C(=O)O)[C@H](Cc1ccc(C2=CCCNC2)cc1)c1nn[nH]n1 [Example 302, (2S)-2-[(1S)-2-[4-(1,2,5,6-tetrahydropyridin-3-yl)phenyl]-1-(2H-tetrazol-5-yl)ethyl]pentanoic acid]	18	3100	980	50	50	38	–	–	–	–	–	–
CNC1CC=C(c2ccc(C[C@H](c3nn[nH]n3)[C@H](CC(C)C)C(=O)O)cc2F)CC1 (stereo partly drawn) [Example 451, 4′-((2S,3S)-3-carboxy-5-methyl-2-(2H-tetrazol-5-yl)hexyl)-2′-fluoro-N-methyl-2,3,4,5-tetrahydro-[1,1′-biphenyl]-4-aminium 2,2,2-trifluoroacetate]	10.1	27.2	30.8	25	3.125	9.375	–	–	–	–	–	–
CC(C)C[C@H](C(=O)O)[C@H](Cc1ccc(-c2ccc(N)nc2)cn1)c1nn[nH]n1 [Example 172, (2S)-2-[(1S)-2-(6′-amino-3,3′-bipyridin-6-yl)-1-(2H-tetrazol-5-yl)ethyl]-4-methylpentanoic acid]	–	–	–	–	–	–	49	800	52	50	38	12.5
CC(C)C[C@H](C(=O)O)[C@H](Cc1ccc(Oc2cccc3c2CCCN3)nc1)c1nn[nH]n1 [Example 389, (2S)-4-methyl-2-[(1S)-2-[6-(1,2,3,4-tetrahydroquinolin-5-yloxy)pyridin-3-yl]-1-(2H-tetrazol-5-yl)ethyl]pentanoic acid]	4.4	58	16	100	6.2	25	–	–	–	–	–	–
CCC[C@H](C(=O)O)[C@H](Cc1ccccc1-c1ccccc1)c1nn[nH]n1 [Example 393, (2S)-2-[(1S)-2-biphenyl-2-yl-1-(2H-tetrazol-5-yl)ethyl]pentanoic acid]	4.5	1000	3.2	75	25	4.7	–	–	–	–	–	–
CCC[C@H](C(=O)O)[C@H](Cc1cccc2sc(N)nc12)c1nn[nH]n1 [Example 155, (S)-2-((S)-2-(2-aminobenzo[d]thiazol-4-yl)-1-(2H-tetrazol-5-yl)ethyl)pentanoic acid]	–	–	–	–	–	–	7.3	290	12	18.8	18.8	16
CC(C)C[C@H](C(=O)O)[C@H](Cc1ccc(N2CC3(CN(C)C(=O)O3)C2)nc1)c1nnn[nH]1 [Example 337, (2S)-4-methyl-2-[(1S)-2-[6-(7-methyl-6-oxo-5-oxa-2,7-diazaspiro[3.4]oct-2-yl)pyridin-3-yl]-1-(1H-tetrazol-5-yl)ethyl]pentanoic acid]	10	300	62	75	18.8	9.4	–	–	–	–	–	–
CC(C)C[C@H](C(=O)O)[C@H](Cc1cc(F)cc(Br)c1)c1nnn[nH]1 [Example 24, (2S)-2-[(1S)-2-(3-bromo-5-fluorophenyl)-1-(1H-tetrazol-5-yl)ethyl]-4-methylpentanoic acid]	–	–	–	–	–	–	0.6	230	18	12.5	4.7	9.4
CCC[C@H](C(=O)O)[C@H](CCCc1ccc(N)nc1)c1nnn[nH]1 [Example 406, (2S,3S)-6-(6-aminopyridin-3-yl)-2-propyl-3-(1H-tetrazol-5-yl)hexanoic acid]	14.9	815	428	6.25	37.5	6.25	–	–	–	–	–	–
CCC[C@H](C(=O)O)[C@H](Cc1ccc(N2CCC[C@@H](N)C2)cc1)c1nn[nH]n1 [Example 229, (2S)-2-[(1S)-2-{4-[(3R)-3-aminopiperidin-1-yl]phenyl}-1-(2H-tetrazol-5-yl)ethyl]pentanoic acid]	–	–	–	–	–	–	25	1200	370	25	25	12.5
CCC[C@H](C(=O)O)[C@H](Cc1ccc(C(=O)N2CCNCC2)cc1)c1nnn[nH]1 [Example 275, (2S)-2-[(1S)-2-[4-(piperazin-1-ylcarbonyl)phenyl]-1-(1H-tetrazol-5-yl)ethyl]pentanoic acid]	41	520	39	38	25	9.4	–	–	–	–	–	–
CC(C)[C@H](C(=O)O)[C@H](Cc1cnc(N)nc1)c1nnn[nH]1 [Example 128, (2S,3S)-4-(2-aminopyrimidin-5-yl)-2-isopropyl-3-(1H-tetrazol-5-yl)butanoic acid]	–	–	–	–	–	–	51	16000	150	50	>200	9.4
O=C(O)[C@@H](C1CCCC1)[C@H](Cc1ccc(C2=CCNC2)cc1)c1nnn[nH]1 [Example 61, (2S,3S)-2-cyclopentyl-4-(4-(2,5-dihydro-1H-pyrrol-3-yl)phenyl)-3-(1H-tetrazol-5-yl)butanoic acid]	–	–	–	–	–	–	1.9	150	32	6.2	3.9	2.3
CCC[C@H](C(=O)O)[C@H](Cc1cccc(F)c1)c1nnn[nH]1 [Example 260, (2S)-2-[(1S)-2-(3-fluorophenyl)-1-(1H-tetrazol-5-yl)ethyl]pentanoic acid]	3.7	870	75	18.8	12.5	6.2	–	–	–	–	–	–
CC(C)C[C@H](C(=O)O)[C@H](Cc1ccc(-c2ccc(CN)cc2)cn1)c1nn[nH]n1 [Example 174, (2S)-2-[(1S)-2-{5-[4-(aminomethyl)phenyl]pyridin-2-yl}-1-(2H-tetrazol-5-yl)ethyl]-4-methylpentanoic acid]	–	–	–	–	–	–	110	2700	240	25	50	9.4
